The test has as its target T1, methioninase (Fusobacterium nucleatum subsp. nucleatum, UniProt Q8RDT4).
T1 construct: disrupted by sonication to obtain the enzyme; endogenous in cells; host or cells: Fusobacterium nucleatum JCM 8532, sonicated cell lysate (unpurified)
T1 sequence (Q8RDT4 1-395): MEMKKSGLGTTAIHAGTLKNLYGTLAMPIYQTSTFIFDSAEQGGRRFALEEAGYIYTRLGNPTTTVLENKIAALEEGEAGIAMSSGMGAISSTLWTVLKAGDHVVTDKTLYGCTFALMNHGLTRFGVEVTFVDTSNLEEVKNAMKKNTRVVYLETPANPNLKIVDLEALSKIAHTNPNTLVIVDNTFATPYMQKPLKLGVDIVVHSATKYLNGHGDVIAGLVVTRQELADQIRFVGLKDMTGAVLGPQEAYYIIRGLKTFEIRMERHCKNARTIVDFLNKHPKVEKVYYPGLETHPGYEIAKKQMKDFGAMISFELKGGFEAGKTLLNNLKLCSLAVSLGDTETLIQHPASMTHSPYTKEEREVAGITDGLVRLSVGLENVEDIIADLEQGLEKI
Description: Cell-free methioninase inhibition test (α-ketobutyrate production from methionine). Type of test: biochemical. As to conditions: cell-free enzyme from sonicated bacteria; read-out: IC50 against methioninase (converted).
As to `CC(C)=CCC[C@]1(C)Oc2c(CC=C(C)C)cc(C(=O)O)cc2C[C@@H]1O` [Myrsinoic acid C, myrsinoic acid C], the IC50 was 13.9 µM.
The same measure for `CC(C)=CCC/C(C)=C/Cc1cc(C(=O)O)cc(C/C=C(\C)CCC=C(C)C)c1O` [Myrsinoic acid E, myrsinoic acid E]: 12.2 µM; for `CC(C)=CCC/C(C)=C/Cc1cc(C(=O)O)cc(CC=C(C)C)c1O` [Myrsinoic acid A, myrsinoic acid A]: 14.6 µM.
Regarding `CC(C)=CC/C=C(\C)C1Cc2cc(C(=O)O)cc(CC=C(C)C)c2O1` (stereo not drawn) [Myrsinoic acid F, myrsinoic acid F], the half-inhibitory concentration (IC50) is 8.81 µM.
With `CC(C)=CCC/C(C)=C/Cc1cc(C(=O)O)cc(C/C=C(\C)CCC=C(C)C)c1O` [Myrsinoic acid E (Synthesized), Myrsinoic acid E] the figure was 12.2 µM.
For the compound `CC(C)=CCCC(C)(O)C1Cc2cc(C(=O)O)cc(CC=C(C)C)c2O1` (stereo not drawn) [Myrsinoic acid B, myrsinoic acid B], the half-inhibitory concentration (IC50) was 11.2 µM.

A word on the IC50: it is the concentration needed to halve the response being measured.

These data come from patent publication US9144539B2, “Methioninase inhibitor and composition and food or drink containing the same” (Lotte Co., Ltd., priority 2006, dated 2015).
